{"source": "paper PMC3123319", "about": "“Insights into the Regulatory Characteristics of the Mycobacterial Dephosphocoenzyme A Kinase: Implications for the Universal CoA Biosynthesis Pathway” (PLoS ONE, 2011)", "target": "T1, dephosphocoenzyme A kinase (CoaE) (Mycobacterium tuberculosis, UniProt P9WPA3)", "T1 sequence (P9WPA3 1-407)": "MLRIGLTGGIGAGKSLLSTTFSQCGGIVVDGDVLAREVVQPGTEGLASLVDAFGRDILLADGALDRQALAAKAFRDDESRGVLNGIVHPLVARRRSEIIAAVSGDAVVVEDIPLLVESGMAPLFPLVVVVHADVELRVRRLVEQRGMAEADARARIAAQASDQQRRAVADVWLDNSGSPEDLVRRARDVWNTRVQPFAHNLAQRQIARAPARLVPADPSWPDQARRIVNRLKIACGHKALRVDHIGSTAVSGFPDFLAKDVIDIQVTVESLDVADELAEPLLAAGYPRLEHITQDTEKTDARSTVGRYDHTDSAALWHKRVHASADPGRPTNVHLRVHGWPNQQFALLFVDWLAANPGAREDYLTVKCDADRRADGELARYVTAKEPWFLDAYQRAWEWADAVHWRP", "assay": "coupled PK-LDH spectrophotometric assay, Dixon plot; supported by tryptophan fluorescence quenching, SEC and limited proteolysis", "assay_type": "biochemical", "data": [{"smiles": "Nc1ccn([C@@H]2O[C@H](COP(=O)(O)OP(=O)(O)OP(=O)(O)O)[C@@H](O)[C@H]2O)c(=O)n1", "note": "[CTP]", "values": [{"measurement": "Ki", "value": 34, "unit": "µM"}]}]}
